Like-named read-outs stand apart in the source and are kept apart here.
Assays:
[1] = biological target: NDM-1 (Klebsiella pneumoniae, UniProt C7C422); test: biochemical; assay type: biochemical; conditions: fluorescence assay, CCF2-FA substrate, 1 pM enzyme, 2 hours at 25° C.; read-out: NDM-1 IC50
Method: (§1) Enzyme Activity: Determination of IC50
(§2) The Class B enzyme activities were measured in the presence of the test inhibitor in a fluorescence assay against a commercially available substrate consisting of a cephalosporin core linking 7-hydroxycoumarin to fluorescein (CCF2-FA). […] In a 384-well microplate, the test inhibitor was incubated with the metallo-β-lactamase enzyme and the substrate for 2 hours at 25° C. […] The IC50 value was determined from semi-logarithmic plots of enzyme inhibition versus inhibitor concentration, with a curve generated using a 4-parameter fit.

[2] = test system: Pseudomonas aeruginosa efflux− (MB9799), IMP-1; assay type: cell-based; conditions: C, D serine β-lactamase inhibitor closely related to relebactam; for P. aeruginosa expressing IMP-1, efflux − (MB9799) MITC95: concentration restoring susceptibility to imipenem at 2 μg/mL in the presence of a class A; for Concentration of metallo-β-lactamase inhibitor which restores susceptibility of efflux − (MB9799) strain to imipenem: imipenem at 2 μg/mL, in the presence of a class A
Description: (§3) The strain background was Pseudomonas aeruginosa PAO1.
(§4) The strain set was then used as a pair to determine the effect of metallo-β-lactamase inhibitors of Formula I on the MIC of imipenem and/or ceftazidime. A fixed concentration of antibiotic was included in standard microbroth MIC tests, usually at the CLSI (Clinical and Laboratory Standards Institute) breakpoint concentration. A fixed amount of a class A/C beta-lactamase inhibitor was also included to inhibit the resident Pseudomonas AmpC enzyme. A serial titration of the metallo-β-lactamase inhibitor was included and the concentration of metallo-β-lactamase inhibitor which restores susceptibility of the strain to the included antibiotic was recorded. That concentration of metallo-β-lactamase inhibitor was then compared between the two strains to determine the fold difference between the efflux+ (MB9798) and efflux− (MB9799) strains. This was taken as an indication of the extent to which the MBLi is subject to efflux.

[3] = biological target: VIM-1 (Pseudomonas aeruginosa (strain ATCC 15692 / DSM 22644 / CIP 104116 / JCM 14847 / LMG 12228 / 1C / PRS 101 / PAO1), UniProt A0A0F7KYQ8); test: biochemical; conditions: CCF2-FA substrate, 30 pM enzyme, 2 hours at 25° C.
Method: as §1, §2

[4] = test system: Pseudomonas aeruginosa efflux+ (MB9798), IMP-1; assay type: cell-based; set-up: Concentration of metallo-β-lactamase inhibitor which restores susceptibility of efflux + (MB9798) strain to imipenem: unit not given here; conditions: C, D serine β-lactamase inhibitor closely related to relebactam; for P. aeruginosa expressing IMP-1, efflux + (MB9798) MITC95: concentration restoring susceptibility to imipenem at 2 μg/mL in the presence of a class A; for Concentration of metallo-β-lactamase inhibitor which restores susceptibility of efflux + (MB9798) strain to imipenem: imipenem at 2 μg/mL, in the presence of a class A
Description: as §3, §4

[5] = test system: Escherichia coli expressing NDM-1 (CLB30005, CLB30016); assay type: cell-based; conditions: with imipenem 1 μg/ml; for Escherichia coli expressing NDM-1 (CLB30016) MITC95: 95% inhibition of bacterial growth; for Escherichia coli MITC95: NDM-1 strain, 95% inhibition of growth
Method: (§5) Antibiotic Potentiation Activity: Determination of Synergistic Concentration
(§6) The bacterial strains tested included the clinical strains Escherichia coli expressing NDM-1 (CLB30005, CLB30016), Serratia marcescens expressing IMP-1 (CL5741), and Klebsiella pneumoniae expressing VIM-1 (IHMA599644). Inhibitor activity was measured in the presence and absence of imipenem in a 384-well microplate.
(§7) The clinical strains CLB30016, CL5741 and IHMA599644 were grown on trypticase soy agar containing 5% sheep's blood. The bacteria on agar plates were incubated at 35° C. with humidity overnight. The following day, individual colonies from each clinical strain were picked and resuspended in 5 ml saline to attain an OD600 of […], for CLB30016, CL5741 and IHMA599644, respectively. These were further diluted 1:100 into 1.1×CAMHB and used to inoculate the test wells as described below.
(§8) Imipenem in 10 mM 3-(N-morpholino)propanesulfonic acid (MOPS, pH 7) was stored in single use aliquots at −80° C. […] On the day of the assay, 4 μl of antibiotic was added to 45 ul of bacteria followed by 1 μl of test compound and mixed by pipetting and with an orbital shaker. The concentration of antibiotic used in the assay was 1 μg/ml. Microplates were covered and incubated at 35° C. for 22 hours to 24 hours. At the end of the incubation, absorbance was determined using a spectrophotometer.

[6] = test system: Klebsiella pneumoniae expressing VIM-1 (IHMA599644); assay type: cell-based; conditions: for Klebsiella pneumoniae expressing VIM-1 (IHMA599644) MITC95: with imipenem 1 μg/ml, 95% inhibition of bacterial growth; for Klebsiella pneumoniae MITC95: VIM-1 strain IHMA599644, with imipenem 1 μg/ml, 95% inhibition of growth
Method: as §5, §6, §7, §8

[7] = test system: Serratia marcescens expressing IMP-1 (CL5741); assay type: cell-based; conditions: for Serratia marcescens expressing IMP-1 (CL5741) MITC95: with imipenem 1 μg/ml, 95% inhibition of bacterial growth; for Serratia marcescens MITC95: IMP-1 strain CL5741, with imipenem 1 μg/ml, 95% inhibition of growth
Method: as §5, §6, §7, §8

[8] = biological target: IMP-1 (Serratia marcescens, UniProt P52699); test: biochemical; assay type: biochemical; conditions: fluorescence assay, CCF2-FA substrate, 2 pM enzyme, 2 hours at 25° C.; read-out: IMP-1 IC50
Chain of IMP-1 (P52699 whole entry, looked up, species assumed): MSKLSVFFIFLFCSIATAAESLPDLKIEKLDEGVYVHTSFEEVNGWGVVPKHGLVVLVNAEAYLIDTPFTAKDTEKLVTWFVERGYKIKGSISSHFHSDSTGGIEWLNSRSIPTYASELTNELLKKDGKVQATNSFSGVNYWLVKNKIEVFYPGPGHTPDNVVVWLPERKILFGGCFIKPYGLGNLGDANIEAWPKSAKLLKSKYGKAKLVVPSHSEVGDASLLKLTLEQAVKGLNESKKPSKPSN
Method: as §1, §2

[9] = fluorescence assay, read-out: VIM-1 IC50

Chain of NDM-1 (C7C422 whole entry, looked up, species assumed): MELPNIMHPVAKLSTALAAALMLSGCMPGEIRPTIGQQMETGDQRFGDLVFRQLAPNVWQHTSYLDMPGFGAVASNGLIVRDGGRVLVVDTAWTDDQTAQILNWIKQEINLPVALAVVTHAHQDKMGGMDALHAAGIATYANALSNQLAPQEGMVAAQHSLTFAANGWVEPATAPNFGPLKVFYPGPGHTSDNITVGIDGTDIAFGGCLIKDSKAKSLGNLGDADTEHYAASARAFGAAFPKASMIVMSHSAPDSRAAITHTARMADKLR

| Compound | IC50 [1] [nM] | P. aeruginosa expressing IMP-1, efflux − (MB9799) MITC95 [2] [µM] | IC50 [3, 9] [nM] | P. aeruginosa expressing IMP-1, efflux + (MB9798) MITC95 [4] [µM] | Escherichia coli expressing NDM-1 (CLB30016) MITC95 [5] [µM] | Klebsiella pneumoniae expressing VIM-1 (IHMA599644) MITC95 [6] [µM] | Serratia marcescens expressing IMP-1 (CL5741) MITC95 [7] [µM] | IC50 ([3]; VIM-1 IC50, fluorescence assay) [nM] | Escherichia coli MITC95 [5] [µM] | Klebsiella pneumoniae MITC95 [6] [µM] | Serratia marcescens MITC95 [7] [µM] | IC50 [8] [nM] | Concentration of metallo-β-lactamase inhibitor which restores susceptibility of efflux − (MB9799) strain to imipenem [2] | Concentration of metallo-β-lactamase inhibitor which restores susceptibility of efflux + (MB9798) strain to imipenem [4] |
| --- | --- | --- | --- | --- | --- | --- | --- | --- | --- | --- | --- | --- | --- | --- |
| Nc1nc2c(-c3ccc(S(=O)(=O)NC[C@H]4CCCN4)c(S(N)(=O)=O)c3-c3nnn[nH]3)cccc2s1.O=CO [Example 126, (R)-2-((4-(2-aminobenzo[d]thiazol-4-yl)-2-sulfamoyl-3-(1H-tetrazol-5-yl)phenylsulfonamido)methyl)pyrrolidin-1-ium formate] | 0.0569 | 1.563 | 0.18 | 0.7813 | 1.563 | 3.125 | 1.563 |  |  |  |  |  |  |  |
| Nc1nc2c(-c3ccc(S(=O)(=O)N4CC5C(N)C5C4)c(S(N)(=O)=O)c3-c3nnn[nH]3)cccc2s1.O=C(O)C(F)(F)F [Example 113, (1R,5S,6s)-3-((4-(2-aminobenzo[d]thiazol-4-yl)-2-sulfamoyl-3-(1H-tetrazol-5-yl)phenyl)sulfonyl)-3-azabicyclo[3.1.0]hexan-6-aminium 2,2,2-trifluoroacetate] | 0.646 | 1.563 | 0.773 | 1.563 | 1.563 | 3.125 | 3.125 |  |  |  |  |  |  |  |
| Nc1nc2c(-c3ccc(S(=O)(=O)N[C@@H]4C[C@H]4N)c(S(N)(=O)=O)c3-c3nn[nH]n3)cccc2s1 [Example 388, 4-(2-amino-1,3-benzothiazol-4-yl)-N^1-[(1R,2R)-2-aminocyclopropyl]-3-(2H-tetrazol-5-yl)benzene-1,2-disulfonamide] | 0.0884 | 3.125 |  | 1.563 |  |  |  | 0.375 | 3.125 | 6.25 | 3.125 |  |  |  |
| CC(C)(CN)NS(=O)(=O)c1ccc(-c2cccc3sc(N)nc23)c(-c2nnn[nH]2)c1S(N)(=O)=O.O=CO [Example 117, 2-(4-(2-aminobenzo[d]thiazol-4-yl)-2-sulfamoyl-3-(1H-tetrazol-5-yl)phenylsulfonamido)-2-methylpropan-1-aminium formate] | 0.0126 | 1.563 | 0.183 | 1.563 | 6.25 | 3.125 | 3.125 |  |  |  |  |  |  |  |
| Nc1nc2c(-c3ccc(S(=O)(=O)NCC(N)C(F)F)c(S(N)(=O)=O)c3-c3nnn[nH]3)cccc2s1.O=CO (stereo not shown) [Example 118, 3-(4-(2-aminobenzo[d]thiazol-4-yl)-2-sulfamoyl-3-(1H-tetrazol-5-yl)phenylsulfonamido)-1,1-difluoropropan-2-aminium formate] | 0.026 | 3.125 |  | 12.5 | 25 | 12.5 | 6.25 | 0.289 |  |  |  |  |  |  |
| NC[C@@H](O)CNS(=O)(=O)c1ccc(-c2ccnc(N)c2)c(-c2nn[nH]n2)c1S(N)(=O)=O [Example 419] | 0.496 |  |  |  |  |  |  |  | 0.1953 | 1.563 | 0.7813 | 1.51 | 0.7813 | 1.563 |
| NC[C@H](N)CNS(=O)(=O)c1ccc(-c2cccn3ccnc23)c(-c2nn[nH]n2)c1S(N)(=O)=O [Example 374, (S)-N1-(2,3-diaminopropyl)-4-(imidazo[1,2-a]pyridin-8-yl)-3-(2H-tetrazol-5-yl)benzene-1,2-disulfonamide] | 0.157 | 1.563 |  | 1.563 |  |  |  |  | 0.7813 | 6.25 | 3.125 | 0.278 |  |  |
| N=C(N)c1nc2c(-c3ccc(S(N)(=O)=O)c(S(N)(=O)=O)c3-c3nn[nH]n3)cccc2s1 [Example 192, 4-(3,4-disulfamoyl-2-(2H-tetrazol-5-yl)phenyl)benzo[d]thiazole-2-carboximidamide] | 0.274 | 0.7813 |  | 1.563 | 1.563 | 1.563 | 0.7813 |  |  |  |  | 0.699 |  |  |
| NCCNS(=O)(=O)c1ccc(-c2cccc3[nH]c(C4CNC4)nc23)c(-c2nn[nH]n2)c1S(N)(=O)=O [Example 443, N1-(2-aminoethyl)-4-(2-(azetidin-3-yl)-1H-benzo[d]imidazol-4-yl)-3-(2H-tetrazol-5-yl)benzene-1,2-disulfonamide] | 0.0814 |  |  |  |  |  |  |  | 0.7813 | 1.172 | 1.563 | 0.79 | 0.7813 | 0.7813 |
| Nc1nc2c(-c3ccc(S(=O)(=O)N[C@H]4CCNC4)c(S(N)(=O)=O)c3-c3nn[nH]n3)cc(F)cc2[nH]1 [Example 399] | 0.0822 |  |  |  |  |  |  |  | 0.7813 | 1.563 | 1.563 | 0.533 | 0.7813 | 0.7813 |
| NCCNS(=O)(=O)c1ccc(-c2cccc3ncccc23)c(-c2nn[nH]n2)c1S(N)(=O)=O [Example 360, N1-(2-aminoethyl)-4-(quinolin-5-yl)-3-(2H-tetrazol-5-yl)benzene-1,2-disulfonamide] |  | 1.563 |  | 1.563 |  |  |  | 0.135 | 1.563 | 3.125 | 1.563 |  |  |  |
